The experiment concerns the target T1, GCNF LBD (Homo sapiens, UniProt Q15406).
T1 construct: Human GCNF (NR6A1) LBD (residues 248-480); made in house; host or cells: E. coli BL(21) DE3
T1 sequence (Q15406 248-480): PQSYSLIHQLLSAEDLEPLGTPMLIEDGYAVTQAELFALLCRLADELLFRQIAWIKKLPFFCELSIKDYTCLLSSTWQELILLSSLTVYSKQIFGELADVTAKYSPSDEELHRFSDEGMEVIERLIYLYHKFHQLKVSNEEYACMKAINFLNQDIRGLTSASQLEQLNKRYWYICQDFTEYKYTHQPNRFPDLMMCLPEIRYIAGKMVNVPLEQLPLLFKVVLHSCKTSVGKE
Nature of the experiment: Differential scanning fluorimetry (DSF) of GCNF LBD. The format is binding. The conditions noted are these: additional ligand screening. How it is done: DSF Assay. GCNF LBD (5 μM) were mixed with 1× Sypro orange (Invitrogen) in DSF buffer (50 mM HEPES, 50 mM KCl, 5 mM TCEP, 0.5 mM EDTA, pH 7.5). Test compounds was added at 1:1 molar equivalence as protein or replaced with DMSO control. Ten microliters (10 μL)×5 replicates for each sample were plated on 384-well PCR microplate. No protein control and no ligand references were also run simultaneously in 5 replicates on the same plate. A total of 450 compounds (Life Chemicals) previously selected from a nuclear-receptor-biased library targeting REV-ERB were analyzed. Thermal stability was assessed on a Quantstudio 6 instrument (Biosystems) by ramping the temperature from 25° C. to 95° C. at 0.05° C./s and protein melt shifts were subsequently quantified by Boltzmann-derived melting temperature (Tm) using the Protein Thermal Shift (ThermoFisher) software. Positive hits were identified when a thermal shift (ΔTm) of at least 2° C. was observed.
For the DSF ligand titration assay, ligands 30, 34 and 80 were titrated against 5 μM GCNF LBD with a ligand concentration series of 30, 20, 13, 9, 6, 4, 2.6, 1.7 and 0 μM from a 20 mM DMSO stock solution. DSF assay and analysis was then performed as described above. All DSF data were reported as mean±SEM.
In general terms: DSF heats the sample and reads unfolding from a dye or from intrinsic fluorescence.

Regarding `CCOC(=O)C(C)Oc1cccc2c(=O)n(CC(=O)Nc3c(C)cc(C)cc3C)ccc12` (stereo not drawn) [R5], the “change in Tm of GCNF” value worked out at 1.6 °C. For the compound `COC(=O)COc1cccc2c(=O)n(CC(=O)NCCc3ccc(OC)c(OC)c3)ccc12` [R9], the “change in Tm of GCNF” value is 0.8 °C. The figure for `CCCCCn1c(SCC(=O)CC(=O)OCC)nc2cc(C(=O)NCc3ccco3)ccc2c1=O` [R12] is 0.8 °C; for `O=C1CCCC2=C1C(c1ccc(O)cc1)C1=C(CCCC1=O)O2` [U1] it is 0.9 °C. The figure for `COc1ccc(NC(=O)N2CCC3(CC2)N=C(SCc2ccccc2)C(c2ccccc2)=N3)cc1OC` [U2] is 2.3 °C. The figure for `CC(=O)Nc1ccc(NCC(O)Cn2c3ccccc3n3c(=O)cc(C)c(C#N)c23)cc1` (stereo not drawn) [U7] is 1.0 °C.

Values taken from patent publication US12478628B2, “Germ cell nuclear factor ligands and methods of use thereof” (Saint Louis University, priority 2020, dated 2025).
